US6169181A, “Compounds useful to treat retroviral infections” (Pharmacia & Upjohn Company, priority 1998, dated 2001)
pKi: −log10 of the molar value. Several values for one entry are separate records, joined by “and”; a condition that tells them apart may be missing. Identical values can stand only once. Counter-ions that a name gives are not always drawn. Like-named read-outs stand apart in the source and are kept apart here.

Tests used:
HIV-1 protease [1] = molecular target: T1, HIV-1 protease (Human immunodeficiency virus type 1 group M subtype B, UniProt P04585); assay: biochemical; conditions: for PROTEASE % INHIB.: Table II, enzyme HIV-1; for inhibition at 0.123 µM / inhibition at 0.37 µM / inhibition at 1.1 µM / inhibition at 3.3 µM / inhibition at 10 µM / inhibition at 30 µM: read-out: Protease % Inhib
In short: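 Percent inhibition came from fluorescence of FITC-tagged cleavage product, separated by filtration from uncleaved substrate captured on streptavidin-coated beads. The enzyme (10 μl of 0.1 μM) and compound acted on a biotin/FITC dual-labelled peptide for one hour at room temperature in the dark. The reaction ran in 0.1 M sodium acetate, pH 5.5, with 1.0 M NaCl and 0.05% NP-40.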

HIV-1 protease [2] = molecular target: T1, HIV-1 protease; assay: biochemical
In short: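 Biotinylated, FITC-labelled peptide substrate cleaved in 0.1 M sodium acetate pH 5.5, 1.0 M NaCl, 0.05% NP-40, room temperature. Filtered labelled product read by fluorescence; nonlinear least-squares fit.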

[3] = Table I, read-out: HIV Protease FITC Assay Ki

| Structure (SMILES) | inhibition at 0.123 µM (HIV-1 protease [1]; Table I, Dose 0.123 μM) [%] | inhibition at 0.37 µM (HIV-1 protease [1]; Table I, Dose 0.370 μM) [%] | inhibition at 1.1 µM (HIV-1 protease [1]; Table I, Dose 1.100 μM) [%] | inhibition at 3.3 µM (HIV-1 protease [1]; Table I, Dose 3.300 μM) [%] | inhibition at 10 µM (HIV-1 protease [1]; Table I, Dose 10.000 μM) [%] | inhibition at 30 µM (HIV-1 protease [1]; Table I, Dose 30.000 μM) [%] | pKi (HIV-1 protease [2]; [3]) | other results |
| --- | --- | --- | --- | --- | --- | --- | --- | --- |
| Cn1cnc(S(=O)(=O)Nc2cccc(C(C3=C(O)CC(CCc4ccccc4)(CCc4ccccc4)OC3=O)C(C)(C)C)c2)c1 (centres unmarked) [Example 343, N-[3-{1-(4-Hydroxy-5,6-dihydro-2-oxo-6,6-bis(2-phenylethyl)-2H-pyran-3-yl)-2,2-dimethylpropyl}phenyl]-1-methyl-1H-imidazole-4-sulfonamide] |  |  |  |  |  |  |  | PROTEASE % INHIB. (HIV-1 protease [1]; DOSE 0.123 (unit not given)): 57.5%; PROTEASE % INHIB. (HIV-1 protease [1]; DOSE 0.370 (unit not given)): 76.83%; PROTEASE % INHIB. (HIV-1 protease [1]; DOSE 1.100 (unit not given)): 81.02%; PROTEASE % INHIB. (HIV-1 protease [1]; DOSE 3.300 (unit not given)): 86.43%; PROTEASE % INHIB. (HIV-1 protease [1]; DOSE 10.000 (unit not given)): 60.56%; PROTEASE % INHIB. (HIV-1 protease [1]; DOSE 30.000 (unit not given)): 46%; pKi (HIV-1 protease [2]; Table II, enzyme HIV-1, read-out: FITC KI): 8.54 |
| CCCC1(CCC)CC(O)=C(C(c2cccc(NS(=O)(=O)c3ccc(C#N)cc3)c2)C2CC2)C(=O)O1 (centres unmarked) [Example 50] | 101 | 108 | 113 | 112 | 101 | 84.8 | 8.75 |  |
| CCC(CCNC(=O)CCCCCCC(=O)N(C)CCS(=O)(=O)O)c1cc(O)c(C(c2cccc(NS(=O)(=O)c3cn(C)cn3)c2)C2CC2)c(=O)o1 (centres unmarked) [Example 110, 2-[[8-[[3-[3-[Cyclopropyl[3-[[(1-methyl-1H-imidazol-4-yl)sulfonyl]amino]phenyl]methyl]-4-hydroxy-2-oxo-2H-pyran-6-yl]pentyl]amino]-1,8-dioxooctyl]methylamino]-ethane sulfonic acid, monosodium salt] | 77.9 | 82.7 | 95.1 | 99.1 | 99.2 | 101 | 8.49 and 8.44 |  |
| O=c1oc2c(c(O)c1C(c1cccc(CS(=O)(=O)c3ccc(F)cc3)c1)C1CC1)CCCCCC2 (centres unmarked) [Example 12, 3-[cyclopropyl[3-[(4-fluorophenylsulfonyl)methyl]phenyl]methyl]-5,6,7,8,9,10-hexahydro-4-hydroxy-2H-cycloocta[b]pyran-2-one] | 75.7 | 87.2 | 91.8 | 91.1 | 94.7 | 95.7 | 8.67 |  |
| Cn1cnc(S(=O)(=O)Nc2cccc(C(c3c(O)cc(C(CC4CC4)CC4CC4)oc3=O)C3CC3)c2)c1 (centres unmarked) [Example 97, N-(3-{Cyclopropyl-[6-(2-cyclopropyl-1-cyclopropylmethyl-ethyl)-4-hydroxy-2-oxo-2H-pyran-3-yl]-methyl}-phenyl)-1-methyl-1H-imidazole-4-sulfonamide] |  |  |  |  |  |  |  | inhibition at 0.123 µM (HIV-1 protease [1]): 105%; inhibition at 0.37 µM (HIV-1 protease [1]): 106%; inhibition at 1.1 µM (HIV-1 protease [1]): 110%; inhibition at 3.3 µM (HIV-1 protease [1]): 107%; inhibition at 10 µM (HIV-1 protease [1]): 116%; inhibition at 30 µM (HIV-1 protease [1]): 115%; pKi (HIV-1 protease [2]; read-out: HIV Protease FITC Assay Ki): 9.00 |
| CCC(CC1CCOCC1)c1cc(O)c(C(c2cccc(NS(=O)(=O)c3nccn3C)c2)C2CC2)c(=O)o1 (centres unmarked) [Example 145, N-(3-{Cyclopropyl-[6-(1-(tetrahydropyran-4-ylmethyl)-propyl)-4-hydroxy-2-oxo-2H-pyran-3-yl]-methyl}-phenyl)-1-methyl-1H-imidazole-2-sulfonamide] | 73.6 | 89.8 | 99.7 | 94.8 | 96.8 | 88 | 9.31 |  |
| CCCC1(CCc2ccccc2)CC(O)=C(C(c2cccc(NS(=O)(=O)c3cn(C)cn3)c2)C2CC2)C(=O)O1 (centres unmarked) [Example 61] | 86.8 | 95.5 | 103 | 103 | 106 | 104 | 9.15 |  |
| CCCC1(CCc2ccc(F)cc2)CC(O)=C(C(c2cccc(NS(=O)(=O)c3cn(C)cn3)c2)C(C)(C)C)C(=O)O1 (centres unmarked) [Example 252, N-[3-{1-(4-Hydroxy-5,6-dihydro-2-oxo-6-(2-(4-fluorophenyl)ethyl)-6-propyl-2H-pyran-3-yl)-2,2-dimethylpropyl}phenyl]-1-methyl-1H-imidazole-4-sulfonamide] | 70 | 85 | 89.7 | 101 | 96.2 | 91.4 | 8.80 |  |
